Reference: EP2488529B1, “Spirocyclic derivatives as histone deacetylase inhibitors” (DAC S.r.l., priority 2009, dated 2011)
Like-named read-outs stand apart in the source and are kept apart here.

Experiments:
[1] = system: HCT-116; assay: Cell growth, CellTiter-Glo Luminescent Cell Viability Assay (antiproliferative assay); format: cell-based; conditions: HCT-116 cells, incubated for 72 h, read-out: HCT116 IC50
From the text: (§1) CellTiter-Glo® Luminescent Cell Viability Assay (Promega) is a homogeneous method of determining the number of viable cells in culture based on quantitation of the present ATP, which indicates the presence of metabolically active cells. The homogeneous assay procedure involves addition of a single reagent (CellTiter-Glo® Reagent) directly to the cells, which leads to cell lysis and generation of a luminescent signal proportional to the amount of the ATP and the number of cells present in culture. The assay relies on the properties of a proprietary thermostable luciferase (Ultra-Glo® recombinant luciferase), which generates a luminescent signal. K562, A549, and HCT-116 cells, in exponential growth, were incubated for 72 h with different concentrations of the inhibitors. After 72 h, a volume of CellTiter-Glo® Reagent equal to the volume of cell culture medium was added. The content was mixed for 2 min to induce cell lysis. The luminescence was recorded after further 10 min at RT in order to obtain a stable luminescent signal.
(§2) The IC50 was calculated using GraphPad Software.

[2] = system: K562; assay: as above; format: cell-based; conditions: K562 cells, incubated for 72 h
From the text: as §1, §2

[3] = system: A549; assay: as above; format: cell-based; conditions: A549 cells, incubated for 72 h
From the text: as §1, §2

[4] = molecular target: HDAC; assay: Assay of enzyme inhibition of HDAC (BIOMOL kit, fluorescence); format: biochemical; conditions: nuclear fraction of Hela cells; substrate 200 µM; 15 min at RT
Method: The in-vitro activity of HDAC inhibitors was assayed using a BIOMOL Kit, according to the instructions from the manufacturer (Biomolecular Research Laborator). 15 µl of 30 x diluted nuclear fraction of Hela cells, was diluted to 50 µl with the assay buffer containing the HDAC inhibitor and the substrate (lysine with acetylated amino group on the side chain) at a concentration of 200 µM. The samples were incubated for 15 min at RT and then exposed to a developer (10 min at RT). In this last step a fluorophore was produced, whose fluorescence was measured using an excitation wavelength of 355 nm and an emission at 460 nm. The IC50 was calculated using GraphPad Software.

Row | Compound | IC50 ([1]; Homo sapiens) [nM] | IC50 ([2]; Homo sapiens) [nM] | IC50 ([3]; Homo sapiens) [nM] | IC50 [4] [nM] | IC50 [1] [nM] | IC50 [2] [nM] | IC50 [3] [nM]
1 | Cn1cc(CN2CCCC3(C2)NC(=O)c2cc(/C=C/C(=O)NO)ccc2O3)c2ccccc21 (racemic) [Example 46, (±)-(E)-3-{1'-(1-Methyl-1H-indol-3-ylmethyl)-4-oxo-spiro[2H-(1,3)-benzoxazine-2,3'-piperidin]-6-yl}-N-hydroxy-acrylamide] | ≤ 1000 | ≤ 1000 | ≤ 1000 | 100 to 1000 |  |  | 
2 | CC(C)N1CCCC2(CC(=O)c3cc(/C=C/C(=O)NO)ccc3O2)C1 (racemic) [Example 49, (±)-(E)-3-[1'-Isopropyl-4-oxo-spiro(chromane-2,3'-piperidine)-6-yl]-N-hydroxy-acrylamide] | ≤ 1000 | ≤ 1000 | ≤ 1000 | 100 to 1000 |  |  | 
3 | O=C(/C=C/c1ccc2c(c1)C(=O)CC1(CCCN(C3CCCC3)C1)O2)NO (racemic) [Example 50, (±)-(E)-3-[1'-Cyclopentyl-4-oxo-spiro(chromane-2,3'-piperidine)-6-yl]-N-hydroxy-acrylamide] | ≤ 1000 | ≤ 1000 | ≤ 1000 | ≤ 100 |  |  | 
4 | O=C(/C=C/c1ccc2c(c1)C(=O)CC1(CCN(Cc3ccccc3)C1)O2)NO (single isomer, unassigned; (+)) [Example 4, (+)-(E)-3-[1'-Benzyl-4-oxo-spiro(chromane-2,3'-pyrrolidine)-6-yl]-N-hydroxy-acrylamide] |  |  |  | ≤ 100 | ≤ 1000 | ≤ 1000 | ≤ 1000
5 | O=C(/C=C/c1ccc2c(c1)C(=O)CC1(CCCN(Cc3ccccc3)C1)O2)NO (single isomer, unassigned; (+)) [Example 18, (+)-(E)-3-[1'-Benzyl-4-oxo-spiro(chrormane-2,3'-piperidine)-6-yl]-N-hydroxy-acrylamide] | ≤ 1000 | ≤ 1000 | 1000 to 3000 | 100 to 1000 |  |  | 
6 | O=C(/C=C/c1ccc2c(c1)C(=O)CC1(CCN(Cc3ccccc3)C1)O2)NO (single isomer, unassigned; (-)) [Example 3, (-)-(E)-3-[1 '-Benzyl-4-oxo-spiro(chromane-2,3'-pyrrolidine)-6-yl]-N-hydroxy-acrylamide] | ≤ 1000 | ≤ 1000 | ≤ 1000 | ≤ 100 |  |  | 
7 | O=C(/C=C/c1ccc2c(c1)C(=O)CC1(CCCN(Cc3ccccc3)C1)O2)NO (single isomer, unassigned; (-)) [Example 17, (-)-(E)-3-[1'-Benzyl-4-oxo-spiro(chromane-2,3'-piperidine)-6-yl]-N-hydroxy-acrylamide] | ≤ 1000 | ≤ 1000 | 1000 to 3000 | ≤ 100 |  |  | 
8 | O=C(/C=C/c1ccc2c(c1)C(=O)CC1(CNC1)O2)NO [Example 30, (E)-3-[4-Oxo-spiro(chromane-2,3'-azetidine)-6-yl]-N-hydroxy-acrylamide] | ≥ 3000 | 1000 to 3000 | ≥ 3000 | 100 to 1000 |  |  | 
9 | O=C(/C=C/c1ccc2c(c1)C(=O)CC1(CN(Cc3ccccc3)C1)O2)NO [Example 31, (E)-3-[1'-Benzyl-4-oxo-spiro(chromane-2,3'-azetidine)-6-yl]-N-hydroxy-acrylamide] | ≤ 1000 | ≤ 1000 | ≤ 1000 | ≤ 100 |  |  | 
10 | O=C(/C=C/c1ccc2c(c1)C(=O)CC1(CN(CCc3ccccc3)C1)O2)NO [Example 32, (E)-3-[1'-(2-Phenyl-ethyl)-4-oxo-spiro(chromane-2,3'-azetidine)-6-yl]-N-hydroxy-acrylamide] | ≤ 1000 | ≤ 1000 | ≤ 1000 | 100 to 1000 |  |  | 
11 | O=C(/C=C/c1ccc2c(c1)C(=O)CC1(CN(Cc3ccc(F)cc3)C1)O2)NO [Example 33, (E)-3-[1'-(4-Fluoro-benzyl)-4-oxo-spiro(chromane-2,3'-azetidine)-6-yl]-N-hydroxy-acrylamide] | ≤ 1000 | ≤ 1000 | ≤ 1000 | 100 to 1000 |  |  | 
12 | CN1CC2(CC(=O)c3cc(/C=C/C(=O)NO)ccc3O2)C1 [Example 34, (E)-3-[1'-Methyl-4-oxo-spiro(chromane-2,3'-azetidine)-6-yl]-N-hydroxy-acrylamide] | ≤ 1000 | ≤ 1000 | ≤ 1000 | 100 to 1000 |  |  | 
13 | O=C(/C=C/c1ccc2c(c1)C(=O)CC1(CN(CCc3ccc(F)cc3)C1)O2)NO [Example 35, (E)-3-{1'-[2-(4-Fluoro-phenyl)-ethyl]-4-oxo-spiro(chromane-2,3'-azetidine)-6-yl}-N-hydroxy-acrylamide] | ≤ 1000 | ≤ 1000 | 1000 to 3000 | 100 to 1000 |  |  | 
14 | CC(=O)N1CC2(CC(=O)c3cc(/C=C/C(=O)NO)ccc3O2)C1 [Example 36, (E)-3-[1'-Acetyl-4-oxo-spiro(chromane-2,3'-azetidine)-6-yl]-N-hydroxy-acrylamide] | ≥ 3000 | ≥ 3000 | ≥ 3000 | 100 to 1000 |  |  | 
15 | O=C(/C=C/c1ccc2c(c1)C(=O)CC1(CN(C(=O)c3ccccc3)C1)O2)NO [Example 37, (E)-3-[1'-Benzoyl-4-oxo-spiro(chromane-2,3'-azetidine)-6-yl]-N-hydroxy-acrylamide] | ≤ 1000 | ≤ 1000 | 1000 to 3000 | ≤ 100 |  |  | 
16 | CCOC(=O)N1CC2(CC(=O)c3cc(/C=C/C(=O)NO)ccc3O2)C1 [Example 38, (E)-3-[1'-Ethyloxycarbonyl-4-oxo-spiro(chromane-2,3'-azetidine)-6-yl]-N-hydroxy-acrylamide] | 1000 to 3000 | 1000 to 3000 | ≥ 3000 | 100 to 1000 |  |  | 
17 | Cn1cc(CN2CC3(CC(=O)c4cc(/C=C/C(=O)NO)ccc4O3)C2)c2ccccc21 [Example 44, (E)-3-[1'-(1-Methyl-1H-indol-3-ylmethyl)-4-oxo-spiro(chromane-2,3'-azetidine)-6-yl]-N-hydroxy-acrylamide] | ≤ 1000 | ≤ 1000 | ≤ 1000 | ≤ 100 |  |  | 
18 | O=C(/C=C/c1cc(F)c2c(c1)C(=O)CC1(CCN(Cc3ccccc3)CC1)O2)NO [Example 51, (E)-3-(1'-Benzyl-8-fluoro-4-oxospiro[chroman-2,4'-piperidine]-6-yl)-N-hydroxy-acrylamide] | ≤ 1000 | ≤ 1000 | 1000 to 3000 | 100 to 1000 |  |  | 
19 | Cc1cc(/C=C/C(=O)NO)cc2c1OC1(CCN(Cc3ccccc3)CC1)CC2=O [Example 52, (E)-3-(1'-Benzyl-8-methyl-4-oxospiro[chroman-2,4'-piperidine]-6-yl)-N-hydroxy-acrylamide] | ≤ 1000 | ≤ 1000 | 1000 to 3000 | 100 to 1000 |  |  | 
20 | CON=C1CC2(CCCN(Cc3ccc(F)cc3)C2)Oc2ccc(/C=C/C(=O)NO)cc21 (stereo not shown) [Example 53, (E)-3-(1'-(4-Fluorobenzyl)-4-(methoxyimino)spiro[chroman-2,3'-piperidine]-6-yl)-N-hydroxyacrylamide] | 1000 to 3000 | 1000 to 3000 | ≥ 3000 | ≥ 1000 |  |  | 
21 | O=C(/C=C/c1ccc2c(c1)C(=NO)CC1(CCCN(C3CCCC3)C1)O2)NO (stereo not shown) [Example 54, (E)-3-(1'-Cyclopentyl-4-(hydroxyimino)spiro[chroman-2,3'-piperidine]-6-yl)-N-hydroxyacrylamide] | ≤ 1000 | ≤ 1000 | ≤ 1000 | ≤ 100 |  |  | 
22 | O=C(/C=C/c1ccc2c(c1)C(=NOCc1ccccc1)CC1(CCCN(CCc3ccccc3)C1)O2)NO (stereo not shown) [Example 55, (E)-3-(4-(Benzyloxyimino)-1'-phenethylspiro[chroman-2,3'-piperidine]-6-yl)-N-hydroxyacrylamide] | ≤ 1000 | ≤ 1000 | 1000 to 3000 | ≥ 1000 |  |  | 
